The results in this text go back to patent US20210284668A1, “GOLD (I)-PHOSPHINE 1,2,3-TRIAZOLE DERIVATIVES WITH ANTIBIOTIC PROPERTIES” (Centre National de la Recherche Scientifique, priority 2018, published 2021).

The subject of experiment [1] is S. aureus ATCC25923. Description: MIC by microdilution, S. aureus ATCC25923. The experiment is classed as cell-based, Staphylococcus aureus. Particulars: S. aureus ATCC25923 (MecA negative, wild-type), Mueller-Hinton broth, in duplicate. In short, it runs like this:
(§1)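 Broth microdilution per CLSI (M07-A10) in Mueller-Hinton broth, run in duplicate; MIC recorded as minimal inhibitory concentration. Panel spans wild-type to multidrug-resistant strains, e.g. S. aureus ATCC700699 (MecA+, glycopeptide resistant), S. epidermidis ATCC35984 (MecA+), E. coli ATCC25922 (wild-type).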
For orientation: Broth dilution looks for growth in wells or tubes with falling amounts of substance.

Experiment [2] relates to S. aureus ATCC29213. Description: MIC by microdilution, S. aureus ATCC29213. The experiment is classed as cell-based, Staphylococcus aureus. The settings on record: S. aureus ATCC29213 (MecA negative, wild-type), Mueller-Hinton broth, in duplicate. In short, it runs like this:
as §1

For experiment [3], the system named is S. aureus ATCC700699. Description: MIC by microdilution, S. aureus ATCC700699. Further details: unit not given here. Particulars: S. aureus ATCC700699 (MecA positive, glycopeptide resistant), in duplicate. The experiment is classed as cell-based, Staphylococcus aureus. In short, it runs like this: as §1
The test system of experiment [4] is S. aureus ST20131365. Description: MIC by microdilution, S. aureus ST20131365. The experiment is classed as cell-based, Staphylococcus aureus. Particulars: S. aureus ST20131365 (MecA positive, glycopeptide resistant), in duplicate. In short, it runs like this:
as §1

Experiment [5] deals with S. epidermidis ATCC14990. Description: MIC by microdilution, S. epidermidis ATCC14990. The experiment is classed as cell-based, Staphylococcus epidermidis. The settings on record: S. epidermidis ATCC14990 (MecA negative, wild-type), in duplicate. In short, it runs like this:
as §1

Experiment [6] relates to S. epidermidis ATCC35984. Description: MIC by microdilution, S. epidermidis ATCC35984. The experiment is classed as cell-based, Staphylococcus epidermidis. The settings on record: S. epidermidis ATCC35984 (MecA positive), in duplicate. The gist of the method: as §1
In experiment [7] the test system is S. epidermidis ST20140436. Description: MIC by microdilution, S. epidermidis ST20140436. The experiment is classed as cell-based, Staphylococcus epidermidis. Particulars: S. epidermidis ST20140436 (MecA positive, glycopeptide resistant), in duplicate. In short, it runs like this:
as §1

Experiment [8] concerns S. epidermidis ST20150446. Description: MIC by microdilution, S. epidermidis ST20150446. The experiment is classed as cell-based, Staphylococcus epidermidis. Particulars: S. epidermidis ST20150446 (MecA positive, glycopeptide resistant), in duplicate. In short, it runs like this:
as §1

Experiment [9] relates to E. faecalis JH2-2. The experiment in a line: MIC by microdilution, E. faecalis JH2-2. Also on record: unit not given here. The settings on record: E. faecalis JH2-2 (wild-type), in duplicate. The experiment is classed as cell-based, Enterococcus faecalis. In short, it runs like this: as §1
Experiment [10] concerns E. faecalis UCN41. The experiment in a line: MIC by microdilution, E. faecalis UCN41. The experiment is classed as cell-based, Enterococcus faecalis. Further details: unit not given here. The settings on record: E. faecalis UCN41 (VanA positive, glycopeptide resistant), in duplicate. In short, it runs like this:
as §1

The test system of experiment [11] is E. faecalis V583. Description: MIC by microdilution, E. faecalis V583. The experiment is classed as cell-based, Enterococcus faecalis. Particulars: E. faecalis V583 (VanB positive, glycopeptide resistant), in duplicate. The gist of the method:
as §1

Experiment [12] concerns E. faecium ATCC19434T. The experiment in a line: MIC by microdilution, E. faecium ATCC19434T. Also on record: unit not given here. The experiment is classed as cell-based, Enterococcus faecium. Particulars: E. faecium ATCC19434T (wild-type), in duplicate. The gist of the method: as §1
In experiment [13] the test system is E. faecium BM4147. The experiment in a line: MIC by microdilution, E. faecium BM4147. The experiment is classed as cell-based, Enterococcus faecium. The settings on record: E. faecium BM4147 (VanA positive, glycopeptide resistant), in duplicate. Further details: unit not given here. In short, it runs like this:
as §1

Experiment [14] deals with E. faecium AUS0004. Description: MIC by microdilution, E. faecium AUS0004. The experiment is classed as cell-based, Enterococcus faecium. Particulars: E. faecium AUS0004 (VanB positive, glycopeptide resistant), in duplicate. The gist of the method: as §1
The subject of experiment [15] is E. coli ATCC25922. Description: MIC by microdilution, E. coli ATCC25922. The experiment is classed as cell-based, Escherichia coli. Particulars: E. coli ATCC25922 (wild-type), in duplicate. In short, it runs like this:
as §1

Experiment [16] deals with Clostridium difficile ATCC700057. The experiment in a line: MIC by microdilution, Clostridium difficile. The experiment is classed as cell-based. Particulars: strain ATCC70057 [sic] (Tables 1-2) / ATCC700057 (Tables 3-10), in duplicate.
Experiment [17] has as its system panel of Gram-positive and Gram-negative strains. Description: Antibacterial profile on the selected panel of strains. The experiment is classed as cell-based. The settings on record: summary of Tables 1-12. In short, it runs like this:
as §1

Values joined by “and” are separate entries in the source; they are usually repeats but may differ in a detail not shown here. Equal values may be shown once. Some results are limits rather than exact numbers.

For the compound `CC1(C)S[C@@H]2[C@H](NC(=O)[C@H](NC(=O)CCc3cnnn3Cc3ccccc3)c3ccccc3)C(=O)N2[C@H]1C(=O)O` [TMB6], the “Minimal Inhibitory Concentration (MIC)” value is 0.5 in experiment [1]; 0.5 and 1 in experiment [2]; >8 in experiment [3]; >8 in experiment [4]; 0.5 in experiment [5]; >8 in experiment [6]. For the same compound, the “Minimal Inhibitory Concentration (MIC)” value in experiment [7] was 4; in [8], 4 and 8; in experiment [9], 2 and 4; in experiment [10], 8; in experiment [11] it was 4; in experiment [12], 8. Besides, the “Minimal Inhibitory Concentration (MIC)” value in [13] is reported as >8; in [14], >8; in experiment [15] it was >8; in experiment [16], 2-4. The “antimicrobial / antibacterial activity (in words)” value in experiment [17] is on record as “do not show an antibacterial activity”.
For the compound `CC1(C)S[C@@H]2[C@H](NC(=O)[C@H](NC(=O)OCc3cnnn3Cc3ccccc3)c3ccccc3)C(=O)N2[C@H]1C(=O)O` [TMB7], the “Minimal Inhibitory Concentration (MIC)” value was 1 in experiment [1]; 1 in experiment [2]; >8 in experiment [3]; >8 in experiment [4]; 1 in experiment [5]; >8 in [6]. Also, the “Minimal Inhibitory Concentration (MIC)” value in [7] is 8; in experiment [8], >8; in [9], 1 and 2; in [10], 4; in experiment [11], 2; in [12], 8. The “Minimal Inhibitory Concentration (MIC)” value in experiment [13] was >8; in experiment [14] it was >8; in [15], >8; in [16], 4. Further, the “antimicrobial / antibacterial activity (in words)” value in experiment [17] is listed as “do not show an antibacterial activity”.
As for `CC[P+](CC)(CC)[Au-][c]1nn[nH]c1CCC(=O)O` [TMB19], the “Minimal Inhibitory Concentration (MIC)” value was 0.125 in experiment [2]; 0.125 and 0.25 in experiment [3]; 0.125 in [4]; ≤0.06 in [5]; ≤0.06 in experiment [6]; ≤0.06 in experiment [7]. The “Minimal Inhibitory Concentration (MIC)” value was ≤0.06 in experiment [8]; 0.125 and 0.25 in experiment [9]; 0.125 and 0.25 in experiment [10]; 0.125 and 0.25 in [11]; 0.125 and 0.25 in [12]; 0.25 in experiment [13]. Moreover, the figures for the “Minimal Inhibitory Concentration (MIC)” value in experiment [14], in experiment [15] and in experiment [16] were 0.125, >8 and ≤0.06, respectively. In addition, the “antimicrobial / antibacterial activity (in words)” value in experiment [17] was “have antimicrobial activity”.
Consider `CC[P+](CC)(CC)[Au-][c]1nn[nH]c1COC(=O)N[C@@H](CCCNC(=N)N[N+](=O)[O-])C(=O)O` [TMB35], for which the “Minimal Inhibitory Concentration (MIC)” value in [1] was 0.125; in experiment [2], 0.25; in experiment [3], 0.25; in experiment [4], 0.25; in [5] it was ≤0.06; in [7], 0.125. Further, the “Minimal Inhibitory Concentration (MIC)” value was 0.125 and 0.25 in [8]; 1 in [9]; 1 in [10]; 1 in [11]; 0.5 in [12]; 1 in [13]. Also, the “Minimal Inhibitory Concentration (MIC)” value in experiment [14] is given as 1; in experiment [15] it was >8; in experiment [16], 0.125. Further, in experiment [17], the “antimicrobial / antibacterial activity (in words)” value was “have antimicrobial activity”.
